Article PMC5035920, “Exploring functional roles of TRPV1 intracellular domains with unstructured peptide-insertion screening” (Scientific Reports, 2016)

Tests used:
mTRPV1 (mouse TRPV1) [1] = biological target: T1, mTRPV1 (mouse TRPV1) (Mus musculus, UniProt Q704Y3, INS430GGG); experiment: patch-clamp of transfected HEK293 cells, concentration-response, Hill fit; type: cell-based
T1 construct: full-length mTRPV1 cDNA in pEYFP-N3, C-terminal eYFP fusion, transiently expressed in HEK293 cells; homotetramer
T1 sequence (Q704Y3 with tags, fused parts or gaps INS430GGG): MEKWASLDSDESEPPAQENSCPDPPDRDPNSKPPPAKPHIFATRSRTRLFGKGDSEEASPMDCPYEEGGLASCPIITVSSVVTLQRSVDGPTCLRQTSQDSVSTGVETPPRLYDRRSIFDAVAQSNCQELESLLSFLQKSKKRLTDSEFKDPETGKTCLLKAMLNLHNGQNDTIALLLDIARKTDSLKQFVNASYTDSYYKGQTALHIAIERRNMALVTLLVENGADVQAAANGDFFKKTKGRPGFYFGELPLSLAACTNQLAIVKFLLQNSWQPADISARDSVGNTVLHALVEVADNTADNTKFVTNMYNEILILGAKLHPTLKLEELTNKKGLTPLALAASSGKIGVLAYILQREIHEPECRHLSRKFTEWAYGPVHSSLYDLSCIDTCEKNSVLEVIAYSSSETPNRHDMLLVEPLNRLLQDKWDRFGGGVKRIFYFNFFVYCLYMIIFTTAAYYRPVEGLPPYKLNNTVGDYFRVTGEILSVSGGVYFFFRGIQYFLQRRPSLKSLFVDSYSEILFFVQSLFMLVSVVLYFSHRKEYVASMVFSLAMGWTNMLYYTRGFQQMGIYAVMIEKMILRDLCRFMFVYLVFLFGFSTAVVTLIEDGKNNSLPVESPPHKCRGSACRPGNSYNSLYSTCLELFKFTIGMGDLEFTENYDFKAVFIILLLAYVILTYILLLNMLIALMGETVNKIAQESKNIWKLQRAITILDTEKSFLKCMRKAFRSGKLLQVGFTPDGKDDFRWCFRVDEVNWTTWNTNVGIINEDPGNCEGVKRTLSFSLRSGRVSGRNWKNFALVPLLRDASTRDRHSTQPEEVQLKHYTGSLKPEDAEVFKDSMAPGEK

mTRPV1 (mouse TRPV1) [2] = biological target: T2, mTRPV1 (mouse TRPV1) (Mus musculus, UniProt Q704Y3); experiment: as above; type: cell-based
T2 construct: full-length mTRPV1 cDNA in pEYFP-N3, C-terminal eYFP fusion, transiently expressed in HEK293 cells; homotetramer
T2 sequence (Q704Y3 whole entry, the tested form may be a part): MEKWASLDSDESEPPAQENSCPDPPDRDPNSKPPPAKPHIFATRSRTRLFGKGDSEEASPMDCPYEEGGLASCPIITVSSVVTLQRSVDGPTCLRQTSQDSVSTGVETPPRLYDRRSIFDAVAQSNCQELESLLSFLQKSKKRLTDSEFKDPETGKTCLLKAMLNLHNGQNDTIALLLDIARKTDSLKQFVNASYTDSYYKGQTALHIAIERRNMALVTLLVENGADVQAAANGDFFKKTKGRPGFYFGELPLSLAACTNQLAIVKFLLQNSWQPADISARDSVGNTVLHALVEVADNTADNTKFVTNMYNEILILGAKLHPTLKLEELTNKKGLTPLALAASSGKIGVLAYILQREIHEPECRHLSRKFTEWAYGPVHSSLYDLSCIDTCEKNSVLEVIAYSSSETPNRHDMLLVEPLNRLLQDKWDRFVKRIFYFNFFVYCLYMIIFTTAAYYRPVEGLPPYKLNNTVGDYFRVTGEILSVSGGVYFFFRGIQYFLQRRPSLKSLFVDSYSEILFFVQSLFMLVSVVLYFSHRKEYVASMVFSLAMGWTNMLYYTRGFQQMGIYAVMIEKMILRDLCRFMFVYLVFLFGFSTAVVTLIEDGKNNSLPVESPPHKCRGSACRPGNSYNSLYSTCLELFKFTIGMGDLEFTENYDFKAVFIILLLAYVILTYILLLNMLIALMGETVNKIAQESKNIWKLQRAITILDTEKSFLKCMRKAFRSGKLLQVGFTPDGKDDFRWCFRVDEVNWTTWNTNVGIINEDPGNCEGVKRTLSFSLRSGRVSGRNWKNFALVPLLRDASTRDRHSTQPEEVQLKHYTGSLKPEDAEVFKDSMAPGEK

For `COc1cc(CNC(=O)CCCC/C=C/C(C)C)ccc1O` [capsaicin], the EC50 (mTRPV1 (mouse TRPV1) [1]) was 70 ± 30 nM and the EC50 (mTRPV1 (mouse TRPV1) [2]) was 150 ± 20 nM.
